{
  "source": "patent US20120052056A1",
  "about": "“COMPOSITION FOR IMPROVING BLOOD CIRCULATION CONTAINING FERMENTED TEA, AND PHARMACEUTICAL AND HEALTH-FOOD COMPOSITIONS COMPRISING THE SAME” (priority 2009, published 2012)",
  "system": "rats fed high-cholesterol diet inducing hyperlipidemia",
  "test": "Reduction in the serum and liver lipid levels in animal model",
  "assay_type": "in vivo",
  "details": "200 mg/kg oral once a day for 4 weeks with hyperlipidemia-inducing diet",
  "procedure": "Eight 8-week-old female rats weighing 250-300 g were housed in each polycarbonate cage under a 12 hr light/12 hr dark cycle at a constant temperature of 22±2° C. and a relative humidity of 55±15%. The animals were fed with a normal diet and a high-cholesterol diet and given drinking water ad libitum. The test animals were divided into four groups: a normal group, a control group, a positive control group, and a test group. The normal group was provided only with general feed, the control group was fed with a normal diet containing 1% cholesterol and 0.5% cholic acid to cause hyperlipidemia, and the positive control group was administered with fenofibric acid (200 mg/kg) that is used as an agent for treating hyperlipidemia, in which the fenofibric acid was suspended in 1% methyl cellulose (MC) and administered orally. The test group was administered orally with the post-fermented tea extract and the green tea extract every day together with a hyperlipidemia-inducing diet, in which the post-fermented tea extract and the green tea extract (200 mg/kg) were provided by oral administration once a day for 4 weeks. After the rats of each group were fasted for 12 hours, a blood sample was taken from the orbital vein and centrifuged at 10000 rcf for 10 minutes. The resulting serum was used to evaluate blood total cholesterol, LDL cholesterol and HDL-cholesterol levels. The rat's liver was collected and used to evaluate the liver cholesterol and triglyceride levels. The above analysis was carried out using an automatic blood analyzer and a Roche diagnostic kit, and the results of the analysis are shown in Table 4 (serum lipids) below and Table 5 (liver lipids).",
  "data": [
    {"smiles": "CC(C)(Oc1ccc(C(=O)c2ccc(Cl)cc2)cc1)C(=O)O", "note": "[Positive control group, fenofibric acid]", "values": [
      {"measurement": "Liver lipids: Total cholesterol", "setting": "liver", "value": "15.43 ± 0.52", "unit": "µg/mg"},
      {"measurement": "Liver lipids: Triglyceride", "setting": "liver", "value": "185.39 ± 23.84", "unit": "µg/mg"},
      {"measurement": "Serum lipids: HDL-cholesterol", "setting": "serum", "value": "87.89 ± 6.84", "unit": "mg/dL"},
      {"measurement": "Serum lipids: LDL-cholesterol", "setting": "serum", "value": "75.34 ± 2.80", "unit": "mg/dL"},
      {"measurement": "Serum lipids: Total cholesterol", "setting": "serum", "value": "112.42 ± 13.33", "unit": "mg/dL"}
    ]}
  ]
}
